How the values were obtained:
CH attacks = conditions: Di Lorenzo et al 2018; cited from earlier work
[1] = test system: trigeminal autonomic cephalgia (left hemi-cephalgia), person; experiment: case report: trigeminal autonomic cephalgia responsive to tricaprylin; assay type: in vivo, human
Excerpt: A person presented with a history of waxing and waning left hemi-cephalgia over the course of 10 years. Their past medical history included bilateral loss of hearing (right worse than left) and past episodes of dizziness leading to a diagnosis of possible Menieres disease. They had hyperlipedemia controlled with a statin. They had some excess weight (BMI 30.8), was a vegetarian and was physically active.
The cephalgia was described as a dull achy non-throbbing pain that when present is continuous over the left side of the face and across the left scalp. The pain appeared to be centered around the eye and was described as if […] were being poked in the eye. The pain also involved the left cheek and left scalp. They could not identify any specific trigger to the pain but did note that it was accompanied by tenderness to touch of the scalp on the left side of the head, including sensitivity to hair brushing. When the pain was present they would be aware of it upon awakening in the morning and it would persist throughout the day.
They had no other headache types, and had not experienced episodes of nasal stuffiness, or pupillary changes. They noted occasional excess lacrimation of the left eye. At one point they were investigated for potential ‘sinus problems’ and no sinus condition was diagnosed. […] […] self-medicated with occasional paracetamol which provided modest relief.
The subject began a daily treatment regimen with Axona®, a medical food containing the active ingredient tricaprylin.
At the time of presentation the headache had recurred to an intensity of 4-6/10 and they were restarted on a course of Axona®, starting with 5 g tricaprylin per day, increasing over 2 weeks to 20 g a day.

[2] = in-vitro digestion assays of emulsion; assay type: in vitro ADME; conditions: intestinal and/or colon pH vs stomach pH
Excerpt: In certain embodiments, the emulsion formed may be stable at stomach pH, e.g., at a pH of about 1 to about 3, about 1.2 to 2.9, etc. In certain embodiments, the emulsion formed may be stable at intestinal and/or colon pH, e.g., at a pH of about 5 to about 7, about 5.5 to about 6.9, etc. […] In accordance with certain aspects of the disclosure, preferential release of tricaprylin in the intestines and/or colon rather than the stomach may increase bioavailability of the tricaprylin given the location of lipid digestion enzymes in these areas.

[3] = test system: participants with frequent migraine; experiment: randomised, double-blind, placebo-controlled study of tricaprylin as AC-SD-03 for the reduction of migraine; assay type: in vivo, human
Excerpt: This is a randomised, double-blind, placebo-controlled, parallel-group, multi-centre study of tricaprylin as AC-SD-03 compared with placebo for the reduction of migraine in participants with frequent migraine.
Following a screening period of up to 2 weeks, the study duration is 17 weeks including a 4-week baseline measurement period, after which randomisation occurs, a 12-week treatment period and a 1-week safety follow-up period.
The study will be completed in two parts. In Part 1, 54 participants will be randomised to receive tricaprylin as AC-SD-03, or placebo, in a 1:1 ratio. Once 54 participants are randomised, enrolment will be paused until the randomised participants have completed the study. Based on an unblinded analysis of the data from all evaluable patients from Part 1, a decision to proceed to Part 2 (enrolment of additional participants) will be taken. The decision to continue to Part 2 will be made by the Sponsor, based on a number of factors including the one-sided p-value for the analysis of the primary endpoint, ΔMDMth3, the safety and tolerability profile observed during Part 1, the observed between-subject variability, as well as trial conduct feasibility. The size of Part 2 will be determined by the between-subject variability observed in Part 1, and will be between 80 and 180 participants.
Investigational Medicinal Products: The formulation AC-SD-03 contains the active compound tricaprylin and excipients, 1:1.5. Thus 75 g AC-SD-03 contains 30 g tricaprylin and 45 g excipients (carrier, emulsifiers and flavouring). The placebo formulation, AC-SD-03P, contains 30 g safflower oil in place of the active compound tricaprylin and identical excipients to the active formulation.
Treatment Groups and Duration: At the Baseline Visit, all participants will receive a sentinel dose of 12.5 g AC-SD-03 (containing 5 g tricaprylin). […] Those that do tolerate the sentinel dose and meet other eligibility criteria, will enter the baseline measurement period of 4 weeks to determine migraine day participant eligibility for the study and to establish baseline data for comparison of endpoints during the study.
After the 4 weeks baseline measurement period, those who record 4-24 migraine days per month will be randomised to AC-SD-03 or placebo (AC-SD-03P) and will titrate from 12.5 g twice a day to 75 g twice a day, over the course of 2 weeks. Participants who have fewer than four or greater than 24 headache days per month in the baseline period will be discontinued from the study. The participant should not be told the number of migraine headache days on which eligibility is based to avoid biased reporting.
Once titration has completed, all participants will continue on the target dose they are on over an additional 10-week maintenance period.
The primary endpoint will be change from baseline in the number of migraine headache days during Month 3 (ΔMDMth3).
The secondary endpoints are: • Change from baseline in the number of migraine headache days during Month 1 (ΔMDMth1) and Month 2 (ΔMDMth2) of treatment and overall, from Months 1-3; • Change from baseline in duration of migraine of moderate to severe intensity during treatment months 1, 2 and 3; • Change from baseline in duration of migraine during treatment months 1, 2 and 3; • The proportion of participants with a 50% reduction from baseline in number of migraine headache days in treatment months 1, 2, and 3; • Change from baseline in monthly acute migraine medicine use during treatment months 1, 2 and 3; • Time to first usage of acute migraine medication; • Change from baseline Headache Impact Test (HIT-6) score at the end of Months 1, 2 and 3; • Incidence of adverse events; • Clinical safety laboratory tests; • Vital signs, ECGs, C-SSRS; […]

O=C(O)CCCO [GHB]
prevention of CH attacks (CH attacks): has been shown to prevent CH attacks

CN(C)CCC=C1c2ccccc2CCc2ccccc21 [amitriptyline]
effect on degree of discomfort ([1]; 10 mg, earlier treatment of the same patient): reduced the degree of discomfort partially
adverse effect ([1]; 10 mg, earlier treatment of the same patient, discontinued): fatigue

CC(=O)Nc1ccc(O)cc1 [paracetamol]
relief of cephalgia ([1]; occasional self-medication): modest relief

CCCCCCCC(=O)OCC(COC(=O)CCCCCCC)OC(=O)CCCCCCC [tricaprylin]
release of encapsulated tricaprylin from emulsion [2]: released from emulsion at intestinal and/or colon pH
Discontinued treatment prior to completion, number of subjects ([3]; 12-week treatment, 40 treated): 18
Discontinued treatment prior to completion, percent of subjects ([3]; 12-week treatment, 40 treated): (45.0%)
Primary reason for discontinuation: Adverse Event, number of subjects ([3]; 12-week treatment, 40 treated): 12
Primary reason for discontinuation: Adverse Event, percent of subjects ([3]; 12-week treatment, 40 treated): (30.0%)
Change from baseline in migraine headache days, Month 2 ([3]; Month 2, vs placebo, one-sided p=0.066 vs target of p<0.2): clinically-relevant benefit
Change from baseline in migraine headache days, Month 3 (primary endpoint) ([3]; Month 3, EEITS, vs placebo, p=0.269 vs target of p<0.2): positive, clinically-relevant trend
